Patent US8859549B2, “Potassium channel modulators” (AbbVie, Inc., priority 2011, dated 2014)

Target: T1, KCNQ 2/3 channels (Homo sapiens, UniProt O43525+O43526)
T1 construct: expressed in transfected cells; host or cells: HEK293
Experiment: KCNQ 2/3 channel activation, thallium flux FLIPR assay (BTC-AM dye)
Type: cell-based
Conditions: for Emax: HEK293, maximum response relative to the response of 10 μM retigabine (set at 100%), HEK293 KCNQ2/KCNQ3 cells, read-out: % MAX; for EC50: HEK293 cells stably expressing human KCNQ2 and KCNQ3 subunits, thallium-induced fluorescence, 4 min compound incubation
Experimental: The following example describes the assay that can be used to identify compounds that activate KCNQ 2/3 channels.
HEK293 cells stably expressing human KCNQ2 and KCNQ3 subunits were seeded in 96-well, black-walled, clear-bottomed, poly-D-lysine coated plates (BD Biosciences, Bedford, Mass.) at a density of 1×10^5 cells per well 24 hours before the assay. On the assay day, BTC-AM dye (Invitrogen, Carlsbad, Calif.) was loaded into the cells by replacing the cell culture medium with 55 μL/well of 3 μg/mL dye in DPBS. Dye loading was allowed to proceed for 2 hours at room temperature and then cells were washed twice with 50 μL/well of assay buffer (in mM: 10 HEPES pH 7.3, 5 glucose, 140 Na-gluconate, 2.5 K-gluconate, 3.6 Ca-gluconate, 2 MgSO4, 0.1 Ouabain) to remove unloaded dye. Cells were incubated in 50 μL of assay buffer before loading onto a FLIPR system (Molecular Devices, Sunnyvale, Calif.). Various concentrations of compounds to be assayed were added to the cells in 50 μL of assay buffer and incubated for 4 minutes. The fluorescence signal was initiated by adding 100 μL of assay buffer containing 6 mM TlNO3 and 10 mM K2SO4. Fluors were excited using the 488-nm line of an argon laser and emission was filtered using a 540±30 nm bandpass filter. Fluorescent signals were recorded for 3 minutes. Sums of the responses over basal responses were plotted versus concentrations of test compounds to obtain an EC50 value. The maximum response for each test compound was determined relative to the response produced by 10 μM retigabine. The maximum response of retigabine at 10 μM was set at 100%.

SMILES | Emax | EC50
O=C(CC1CCOC1)Nn1nc(-c2ccnc(Cl)c2)c2ccccc2c1=O (stereo not drawn) [Example 67, N-[4-(2-chloropyridin-4-yl)-1-oxophthalazin-2(1H)-yl]-2-(tetrahydrofuran-3-yl)acetamide] | 6.78% | 
CN1CCN(c2nn(NC(=O)Cc3ccc(Cl)cc3)c(=O)c3ccccc23)CC1 [Example 107, 2-(4-chlorophenyl)-N-[4-(4-methylpiperazin-1-yl)-1-oxophthalazin-2(1H)-yl]acetamide] | 24.3% | 
O=C(CC1CC2CCC1C2)Nn1nc(Cc2cc[n+]([O-])cc2)c2ccccc2c1=O (racemic) [Example 100, (±)-2-[(exo)-bicyclo[2.2.1]hept-2-yl]-N-{4-[(1-oxidopyridin-4-yl)methyl]-1-oxophthalazin-2(1H)-yl}acetamide] | 53.4% | 0.916 µM
CC(C)(C)CNC(=O)Cc1nn(NC(=O)Cc2ccc(Cl)cc2)c(=O)c2ccccc12 [Example 123, 2-(4-chlorophenyl)-N-[4-{2-[(2,2-dimethylpropyl)amino]-2-oxoethyl}-1-oxophthalazin-2(1H)-yl]acetamide] | 13% | 
O=C(Cc1ccc(Oc2ccccc2)cc1)Nn1nc(N2CCOCC2)c2ccccc2c1=O [Example 163, N-[4-(morpholin-4-yl)-1-oxophthalazin-2(1H)-yl]-2-(4-phenoxyphenyl)acetamide] | 30.8% | 
O=C(Cc1ccc(F)cc1)Nn1nc(S(=O)(=O)c2ccccc2)c2ccccc2c1=O [Example 193, 2-(4-fluorophenyl)-N-[1-oxo-4-(phenylsulfonyl)phthalazin-2(1H)-yl]acetamide] | 87.9% | 0.0792 µM
CCC(C)(C)OC(=O)NCc1nn(NC(=O)Cc2ccc(Cl)cc2)c(=O)c2ccccc12 [Example 182, 2-methylbutan-2-yl[(3-{[(4-chlorophenyl)acetyl]amino}-4-oxo-3,4-dihydrophthalazin-1-yl)methyl]carbamate] | 63.8% | 1.32 µM
O=C(Cc1ccc(Cl)cc1)Nn1nc(CNC(=O)OC2CCCCC2)c2ccccc2c1=O [Example 128, cyclohexyl[(3-{[(4-chlorophenyl)acetyl]amino}-4-oxo-3,4-dihydrophthalazin-1-yl)methyl]carbamate] | 21.6% | 
CC(C)(CC(=O)Nn1nc(N2CCOCC2)c2ccccc2c1=O)c1ccccc1 [Example 33, 3-methyl-N-[4-(morpholin-4-yl)-1-oxophthalazin-2(1H)-yl]-3-phenylbutanamide] | 131% | 1.59 µM
CC(C)(C)OC(=O)Nc1ccc(Sc2nn(NC(=O)Cc3ccc(Cl)cc3)c(=O)c3ccccc23)cc1 [Example 103, tert-butyl{4-[(3-{[(4-chlorophenyl)acetyl]amino}-4-oxo-3,4-dihydrophthalazin-1-yl)sulfanyl]phenyl}carbamate] | 76% | 
Cc1ccsc1-c1nn(NC(=O)Cc2cc(F)cc(F)c2)c(=O)c2ccccc12 [Example 14, 2-(3,5-difluorophenyl)-N-[4-(3-methylthiophen-2-yl)-1-oxophthalazin-2(1H)-yl]acetamide] | 146% | 0.296 µM
O=C(Cc1cc(F)cc(F)c1)Nn1nc(Sc2ccc(Br)cc2)c2ccccc2c1=O [Example 197, N-{4-[(4-bromophenyl)sulfanyl]-1-oxophthalazin-2(1H)-yl}-2-(3,5-difluorophenyl)acetamide] | 120% | 0.049 µM
O=C(CC1CC2CCC1C2)Nn1nc(CNC(=O)OCc2ccccc2)c2ccccc2c1=O (racemic) [Example 96, (±)-benzyl[(3-{[(exo)-bicyclo[2.2.1]hept-2-ylacetyl]amino}-4-oxo-3,4-dihydrophthalazin-1-yl)methyl]carbamate] | 79.4% | 0.315 µM
O=C(CC1CC2CCC1C2)Nn1nc(C(=O)O)c2ccccc2c1=O (racemic) [Example 55, (±)-3-{[(exo)-bicyclo[2.2.1]hept-2-ylacetyl]amino}-4-oxo-3,4-dihydrophthalazine-1-carboxylic acid] | 149% | 1.37 µM
CC(C)(C)OC(=O)NCc1nn(NC(=O)CC2CC3CCC2C3)c(=O)c2ccccc12 (racemic) [Example 44, (±)-tert-butyl[(3-{[(exo)-bicyclo[2.2.1]hept-2-ylacetyl]amino}-4-oxo-3,4-dihydrophthalazin-1-yl)methyl]carbamate] | 116% | 0.294 µM
O=C(Cc1cc(F)cc(F)c1)Nn1nc(-c2cccs2)c2ccccc2c1=O [Example 10, 2-(3,5-difluorophenyl)-N-[1-oxo-4-(thiophen-2-yl)phthalazin-2(1H)-yl]acetamide] | 137% | 0.161 µM
CC(C)(C)OC(=O)Nc1ccc(S(=O)(=O)c2nn(NC(=O)Cc3ccc(Cl)cc3)c(=O)c3ccccc23)cc1 [Example 106, tert-butyl{4-[(3-{[(4-chlorophenyl)acetyl]amino}-4-oxo-3,4-dihydrophthalazin-1-yl)sulfonyl]phenyl}carbamate] | 46.2% | 2.01 µM
O=C(CC1CC2CCC1C2)Nn1nc(Nc2cccc(Cl)c2)c2ccccc2c1=O (racemic) [Example 35, (±)-2-[(exo)-bicyclo[2.2.1]hept-2-yl]-N-{4-[(3-chlorophenyl)amino]-1-oxophthalazin-2(1H)-yl}acetamide] | 11.4% | 
O=C(Cc1cc(F)cc(F)c1)Nn1nc(N2CCOCC2)c2ccccc2c1=O [Example 1, 2-(3,5-difluorophenyl)-N-[4-(morpholin-4-yl)-1-oxophthalazin-2(1H)-yl]acetamide] | 130% | 4.46 µM
O=C(Cc1cccc(Cl)c1)Nn1nc(S(=O)(=O)c2ccccc2)c2ccccc2c1=O [Example 209, 2-(3-chlorophenyl)-N-[1-oxo-4-(phenylsulfonyl)phthalazin-2(1H)-yl]acetamide] | 80.9% | 0.0774 µM
Cc1cccc(CC(=O)Nn2nc(N3CCOCC3)c3ccccc3c2=O)c1 [Example 140, 2-(3-methylphenyl)-N-[4-(morpholin-4-yl)-1-oxophthalazin-2(1H)-yl]acetamide] | 103% | 6.89 µM
O=C(Cc1ccc(Cl)cc1)Nn1nc(C(=O)O)c2ccccc2c1=O [Example 65, 3-{[(4-chlorophenyl)acetyl]amino}-4-oxo-3,4-dihydrophthalazine-1-carboxylic acid] | 30.1% | 

Further lines, results first:

Emax | EC50 | SMILES
137% | 0.306 µM | COc1ccc(-c2nn(NC(=O)CC3CC4CCC3C4)c(=O)c3ccccc23)cn1 (racemic) [Example 26, (±)-2-[(exo)-bicyclo[2.2.1]hept-2-yl]-N-[4-(6-methoxypyridin-3-yl)-1-oxophthalazin-2(1H)-yl]acetamide]
17.1% |  | CC(C(=O)NC(C)(C)C)c1nn(NC(=O)Cc2ccc(Cl)cc2)c(=O)c2ccccc12 (stereo not drawn) [Example 112, N-tert-butyl-2-(3-{[(4-chlorophenyl)acetyl]amino}-4-oxo-3,4-dihydrophthalazin-1-yl)propanamide]
185% | 0.102 µM | CN(Cc1ccccc1)c1nn(NC(=O)CC(C)(C)c2ccccc2)c(=O)c2ccccc12 [Example 52, N-{4-[benzyl(methyl)amino]-1-oxophthalazin-2(1H)-yl}-3-methyl-3-phenylbutanamide]
18.7% |  | O=C(Cc1ccccc1F)Nn1nc(N2CCOCC2)c2ccccc2c1=O [Example 148, 2-(2-fluorophenyl)-N-[4-(morpholin-4-yl)-1-oxophthalazin-2(1H)-yl]acetamide]
11.7% |  | O=C(Cc1ccc(Cl)cc1)Nn1nc(Cc2ccc(Cl)[n+]([O-])c2)c2ccccc2c1=O [Example 104, N-{4-[(6-chloro-1-oxidopyridin-3-yl)methyl]-1-oxophthalazin-2(1H)-yl}-2-(4-chlorophenyl)acetamide]
197% | 0.0217 µM | O=C(CC1CC2CCC1C2)Nn1nc(SCc2ccccc2)c2ccccc2c1=O (racemic) [Example 214, (±)-N-[4-(benzylsulfanyl)-1-oxophthalazin-2(1H)-yl]-2-[(exo)-bicyclo[2.2.1]hept-2-yl]acetamide]
119% | 0.872 µM | O=C(Cc1ccc(Cl)cc1)Nn1nc([S+]([O-])c2ccccc2)c2ccccc2c1=O (stereo not drawn) [Example 82, 2-(4-chlorophenyl)-N-[1-oxo-4-(phenylsulfinyl)phthalazin-2(1H)-yl]acetamide]
87.4% | 0.18 µM | O=C(Cc1ccc(Cl)cc1)Nn1nc(Oc2ccccc2)c2ccccc2c1=O [Example 127, 2-(4-chlorophenyl)-N-(1-oxo-4-phenoxyphthalazin-2(1H)-yl)acetamide]
51.7% |  | COc1ccc(CC(=O)Nn2nc(N3CCOCC3)c3ccccc3c2=O)cc1OC [Example 172, 2-(3,4-dimethoxyphenyl)-N-[4-(morpholin-4-yl)-1-oxophthalazin-2(1H)-yl]acetamide]
43.8% |  | O=C(Cc1cccc(O)c1)Nn1nc(N2CCOCC2)c2ccccc2c1=O [Example 143, 2-(3-hydroxyphenyl)-N-[4-(morpholin-4-yl)-1-oxophthalazin-2(1H)-yl]acetamide]
